Activity and Emax data for two compounds are collected here from ChEMBL document CHEMBL5543126, “Combinatorial Ubiquitination REal-time PROteolysis (CURE-PROs): A Modular Platform for Generating Reversible, Self-Assembling Bifunctional Targeted Degraders” (J Med Chem, 2024).

Active and inactive are the calls of the source. The calls are words filed in the database; no cut-off is given here.

Common to all, as to type: cell-based
In assay [1] the target is T1, von Hippel-Lindau disease tumor suppressor/Bromodomain-containing protein 4 (Homo sapiens, UniProt O60885+P40337). In words: PROTAC activity at BRD4/VHL in human MCF7 cells assessed as induction of BRD4 degradation by measuring residual activity at 1 uM incubated for 24 hrs in presence of 300 nM BRD4 based ligand ((4S)-6-(4-chlorophenyl)-4-(2-(ethylamino)-2-oxoethyl)-1-methyl4Hbenzo[f][1,2,4]triazolo [4,3-a][1,4]diazepin-8-yl)boronic acid by Western blot based Combinatorial Ubiquitination Real-time PROteolysis analysis. (In western blotting, separated proteins are transferred to a membrane and probed.)

In assay [2] the target is T1, von Hippel-Lindau disease tumor suppressor/Bromodomain-containing protein 4. Kind of assay: PROTAC activity at BRD4/VHL in human MCF7 cells assessed as induction of BRD4 degradation by measuring residual activity at 100 nM incubated for 24 hrs in presence of 100 nM BRD4 based ligand ((4S)-6-(4-chlorophenyl)-4-(2-(ethylamino)-2-oxoethyl)-1-methyl4Hbenzo[f][1,2,4]triazolo [4,3-a][1,4]diazepin-8-yl)boronic acid by Western blot based Combinatorial Ubiquitination Real-time PROteolysis analysis.

The target is the same in assay [3]. Kind of assay: PROTAC activity at BRD4/VHL in human MCF7 cells assessed as induction of BRD4 degradation by measuring residual activity at 30 nM incubated for 24 hrs in presence of 100 nM BRD4 based ligand ((4S)-6-(4-chlorophenyl)-4-(2-(ethylamino)-2-oxoethyl)-1-methyl4Hbenzo[f][1,2,4]triazolo [4,3-a][1,4]diazepin-8-yl)boronic acid by Western blot based Combinatorial Ubiquitination Real-time PROteolysis analysis.

Assay [4] concerns the target Protein cereblon/Bromodomain-containing protein 4 (Homo sapiens) (UniProt O60885+Q96SW2). In words: PROTAC activity at BRD4/CRBN in human HeLa cells assessed as induction of BRD4 degradation at 10 uM incubated for 24 hrs in presence of CRBN based ligand N-((2-(2,6-dioxopiperidin-3-yl)-1,3-dioxoisoindolin-4-yl)methyl)-2,3-dihydroxybenzamide by Western blot analysis based Combinatorial Ubiquitination Real-time PROteolysis analysis.

The target of assay [5] is T1, von Hippel-Lindau disease tumor suppressor/Bromodomain-containing protein 4. Kind of assay: PROTAC activity at VHL/BRD4 in HEK293 cells assessed as induction of BRD4 degradation by measuring maximal level of degradation at 10 uM measured every 15 mins for 24 hrs in presence of VHL based ligand (2S,4R)-1-((S)-2-(2,3-dihydroxybenzamido)-3,3-dimethylbutanoyl)-4-hydroxy-N-(4-(4-methylthiazol-5-yl)benzyl)pyrrolidine-2-carboxamide by HiBiT based Combinatorial Ubiquitination Real-time PROteolysis analysis. Background: HiBiT is a short tag that completes a luciferase, so light tracks the accessible tagged protein.

Assay [6] shares this target. Kind of assay: PROTAC activity at BRD4/VHL in human MCF7 cells assessed as induction of BRD4 degradation by measuring residual activity at 300 nM incubated for 24 hrs in presence of VHL based ligand (2S,4R)-1-((S)-2-(2,3-dihydroxybenzamido)-3,3-dimethylbutanoyl)-4-hydroxy-N-(4-(4-methylthiazol-5-yl)benzyl)pyrrolidine-2-carboxamide by Western blot based Combinatorial Ubiquitination Real-time PROteolysis analysis.

Assay [7] has the same target. In words: PROTAC activity at BRD4/VHL in human MCF7 cells assessed as induction of BRD4 degradation by measuring residual activity at 100 nM incubated for 24 hrs in presence of VHL based ligand (2S,4R)-1-((S)-2-(2,3-dihydroxybenzamido)-3,3-dimethylbutanoyl)-4-hydroxy-N-(4-(4-methylthiazol-5-yl)benzyl)pyrrolidine-2-carboxamide by Western blot based Combinatorial Ubiquitination Real-time PROteolysis analysis.

Assay [8] shares this target. Kind of assay: PROTAC activity at BRD4/VHL in human MCF7 cells assessed as induction of BRD4 degradation by measuring residual activity at 300 nM incubated for 24 hrs in presence of 300 nM VHL based ligand (2S,4R)-1-((S)-2-(2,3-dihydroxybenzamido)-3,3-dimethylbutanoyl)-4-hydroxy-N-(4-(4-methylthiazol-5-yl)benzyl)pyrrolidine-2-carboxamide by Western blot based Combinatorial Ubiquitination Real-time PROteolysis analysis.

Assay [9] has the same target. In words: PROTAC activity at BRD4/VHL in human MCF7 cells assessed as induction of BRD4 degradation by measuring residual activity at 300 nM incubated for 24 hrs in presence of 10 uM VHL based ligand (2S,4R)-1-((S)-2-(2,3-dihydroxybenzamido)-3,3-dimethylbutanoyl)-4-hydroxy-N-(4-(4-methylthiazol-5-yl)benzyl)pyrrolidine-2-carboxamide by Western blot based Combinatorial Ubiquitination Real-time PROteolysis analysis.

For assay [10] the target is unchanged. In words: PROTAC activity at BRD4/VHL in human MCF7 cells assessed as induction of BRD4 degradation by measuring residual activity at 30 nM incubated for 24 hrs in presence of 3 uM VHL based ligand (2S,4R)-1-((S)-2-(2,3-dihydroxybenzamido)-3,3-dimethylbutanoyl)-4-hydroxy-N-(4-(4-methylthiazol-5-yl)benzyl)pyrrolidine-2-carboxamide by Western blot based Combinatorial Ubiquitination Real-time PROteolysis analysis.

Assay [11] has the same target. Kind of assay: PROTAC activity at BRD4/VHL in human MCF7 cells assessed as induction of BRD4 degradation by measuring residual activity at 1 uM incubated for 24 hrs in presence of 3 uM VHL based ligand (2S,4R)-1-((S)-2-(2,3-dihydroxybenzamido)-3,3-dimethylbutanoyl)-4-hydroxy-N-(4-(4-methylthiazol-5-yl)benzyl)pyrrolidine-2-carboxamide by Western blot based Combinatorial Ubiquitination Real-time PROteolysis analysis.

The target is the same in assay [12]. In words: PROTAC activity at BRD4/VHL in human MCF7 cells assessed as induction of BRD4 degradation by measuring residual activity at 1 uM incubated for 24 hrs in presence of 10 uM VHL based ligand (2S,4R)-1-((S)-2-(2,3-dihydroxybenzamido)-3,3-dimethylbutanoyl)-4-hydroxy-N-(4-(4-methylthiazol-5-yl)benzyl)pyrrolidine-2-carboxamide by Western blot based Combinatorial Ubiquitination Real-time PROteolysis analysis.

Assay [13] shares this target. Kind of assay: PROTAC activity at BRD4/VHL in human MCF7 cells assessed as induction of BRD4 degradation by measuring residual activity at 1 uM incubated for 24 hrs in presence of VHL based ligand (2S,4R)-1-((S)-2-(2,3-dihydroxybenzamido)-3,3-dimethylbutanoyl)-4-hydroxy-N-(4-(4-methylthiazol-5-yl)benzyl)pyrrolidine-2-carboxamide by Western blot based Combinatorial Ubiquitination Real-time PROteolysis analysis.

Assay [14] has the same target. Kind of assay: PROTAC activity at BRD4/VHL in human MCF7 cells assessed as induction of BRD4 degradation by measuring residual activity at 10 uM incubated for 24 hrs in presence of 1 uM VHL based ligand (2S,4R)-1-((S)-2-(2,3-dihydroxybenzamido)-3,3-dimethylbutanoyl)-4-hydroxy-N-(4-(4-methylthiazol-5-yl)benzyl)pyrrolidine-2-carboxamide by Western blot based Combinatorial Ubiquitination Real-time PROteolysis analysis.

For assay [15] the target is unchanged. In words: PROTAC activity at VHL/BRD4 in HEK293 cells assessed as induction of BRD4 degradation by measuring degradation rate at 0.3 uM measured every 15 mins for 24 hrs in presence of VHL based ligand (2S,4R)-1-((S)-2-(2,3-dihydroxybenzamido)-3,3-dimethylbutanoyl)-4-hydroxy-N-(4-(4-methylthiazol-5-yl)benzyl)pyrrolidine-2-carboxamide by HiBiT based Combinatorial Ubiquitination Real-time PROteolysis analysis.

T1 sequence (P40337 whole entry, looked up, other chains not shown): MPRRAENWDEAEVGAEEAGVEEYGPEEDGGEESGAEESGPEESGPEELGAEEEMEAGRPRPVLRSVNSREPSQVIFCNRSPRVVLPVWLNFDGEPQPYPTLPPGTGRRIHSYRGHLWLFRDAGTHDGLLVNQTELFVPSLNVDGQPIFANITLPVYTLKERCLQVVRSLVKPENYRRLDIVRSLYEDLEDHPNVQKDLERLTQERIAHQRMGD
Chain of Protein cereblon/Bromodomain-containing protein 4 (Homo sapiens) (Q96SW2 whole entry, looked up, other chains not shown): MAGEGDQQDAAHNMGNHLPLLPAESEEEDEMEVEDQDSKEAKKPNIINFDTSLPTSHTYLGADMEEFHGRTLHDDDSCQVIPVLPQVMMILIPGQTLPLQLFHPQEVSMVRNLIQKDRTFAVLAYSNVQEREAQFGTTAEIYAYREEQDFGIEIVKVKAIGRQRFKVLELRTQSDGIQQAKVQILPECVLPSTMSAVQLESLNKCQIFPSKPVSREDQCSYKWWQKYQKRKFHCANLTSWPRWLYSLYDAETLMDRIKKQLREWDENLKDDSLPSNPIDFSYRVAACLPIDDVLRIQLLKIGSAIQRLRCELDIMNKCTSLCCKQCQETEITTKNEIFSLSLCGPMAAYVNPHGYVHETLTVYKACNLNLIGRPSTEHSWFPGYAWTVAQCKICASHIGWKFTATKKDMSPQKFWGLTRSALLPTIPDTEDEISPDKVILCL

As for `Cc1ncsc1-c1ccc(CNC(=O)[C@@H]2C[C@@H](O)CN2C(=O)[C@@H](NC(=O)c2cccc(O)c2O)C(C)(C)C)cc1`, the Activity came to 48% in assay [1], 97% in assay [2] and 89% in [3].
One may read the Emax as the size of the effect at its maximum, as opposed to the concentration needed. With `CCNC(=O)C[C@@H]1N=C(c2ccc(Cl)cc2)c2cc(B(O)O)ccc2-n2c(C)nnc21`, the result in assay [4] was inactive. For the same compound, the Emax in assay [5] amounted to 96%. The Activity in [6] is 100%; in [7], 89%; in assay [8], 68%; in [9], 40%; in assay [10], 90%; in [11] it was 22%. In addition, the Activity in assay [12] amounted to 20%; in assay [13], 64%; in assay [14], 21%; in assay [15], 0.144 h⁻¹.
